# In ChEMBL document CHEMBL1158876, “New acylated sulfoglycolipids and digalactolipids and related known glycolipids from cyanobacteria with a potential to inhibit the reverse transcriptase of HIV-1” (J Nat Prod, 1997):
# Target: Gag-Pol polyprotein (Human immunodeficiency virus type 1 group M subtype B (isolate BH10)(HIV-1)) (UniProt P03366)
# Assay: Inhibition of RNA dependent DNA polymerase activity of HIV1 BH10 recombinant reverse transcriptase p66/p51 expressed in Escherichia coli at 10 uM
# Details: Human immunodeficiency virus 1
row,Compound,inhibition [%]
1,CCCCCCCCCCCCCCCC(=O)OC[C@H](CO[C@H]1O[C@H](CS(=O)(=O)O)[C@@H](O)[C@H](O)[C@H]1O)OC(=O)CCCCCCCCCCCCCCC,100
2,CCCCCCCC/C=C\CCCCCCCC(=O)OC[C@H](CO[C@H]1O[C@H](CS(=O)(=O)O)[C@@H](O)[C@H](O)[C@H]1O)OC(=O)CCCCCCCCCCCCCCC,100
3,CCCCC/C=C\C/C=C\CCCCCCCC(=O)OC[C@H](CO[C@@H]1O[C@H](CO[C@H]2O[C@H](CO)[C@H](O)[C@H](OC(=O)CCCCCCCCCCCCCCC)[C@H]2O)[C@H](O)[C@H](O)[C@H]1O)OC(=O)CCCCCCCCCCCCCCC,42
4,CCCCC/C=C\C/C=C\CCCCCCCC(=O)OC[C@H](CO[C@H]1O[C@H](CS(=O)(=O)O)[C@@H](O)[C@H](O)[C@H]1O)OC(=O)CCCCCCCCCCCCCCC,100
5,CCCCC/C=C\C/C=C\CCCCCCCC(=O)OC[C@H](CO[C@H]1O[C@H](CS(=O)(=O)O)[C@@H](O)[C@H](OC(=O)CCCCCCCCCCCCCCC)[C@H]1OC(=O)CCCCCCCCCCCCCCC)OC(=O)CCCCCCCCCCCCCCC,100
6,"CCCCC/C=C\C/C=C\CCCCCCCC(=O)OC[C@H](CO[C@@H]1O[C@H](CO)[C@H](O)[C@H](O)C1O)OC(=O)CCCCCCCCCCCCCCC (single isomer, unassigned)",65
7,"CCCCCCCCCCCCCCCC(=O)OC[C@H](CO[C@@H]1O[C@H](CO)[C@H](O)[C@H](O)C1O)OC(=O)CCCCCCCCCCCCCCC (single isomer, unassigned)",8
8,"CCCCCCCC/C=C\CCCCCCCC(=O)OC[C@H](CO[C@@H]1O[C@H](CO)[C@H](O)[C@H](O)C1O)OC(=O)CCCCCCCCCCCCCCC (single isomer, unassigned)",33
